In this experiment the target is Fatty acid-binding protein, heart (Homo sapiens, UniProt P05413).

Structures are written as SMILES. pIC50: −log10 of the molar value.

Sequence of Fatty acid-binding protein, heart (P05413 whole entry): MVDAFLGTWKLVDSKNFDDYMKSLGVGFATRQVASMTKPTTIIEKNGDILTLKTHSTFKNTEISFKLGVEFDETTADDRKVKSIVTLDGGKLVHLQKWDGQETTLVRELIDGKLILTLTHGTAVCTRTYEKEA

Broadly, the pIC50 is −log10 of the IC50, conventionally taken in molar units. A higher pIC50 goes with a low IC50. In the case of `Oc1cc(C(F)(F)F)nc(NCc2ccc(Cl)cc2)n1`, the pIC50 was < 4.00.
For the molecule `CN(Cc1ccccc1)c1nc(C(F)(F)F)cc(=O)[nH]1`, the pIC50 was < 4.00.
